In one assay the test system is BaF3 parental cells. Description: In vitro cell proliferation potency assay, Cell Titer Glo (Example 902). Type of assay: cell-based, murine. As to conditions: Mus musculus. Here is the method:
(§1) BaF3 parental line was obtained from the DSMZ repository. BaF3 lines transfected with PIM 1 or PIM2 were generated. Mouse IL-3 was purchased from R&D Systems. G418 was purchased from Clontech. Media for BaF3 parental line contained RPMI, 10% FBS, 2 mM L-Glutamine, 2 ng/mL mIL-3. Media for BaF3 PIM1 & 2 lines contained RPMI, 10% FBS, 2 mM L-Glutamine, […]. Media for MM1.S (multiple myeloma cells) line contained RPMI, 10% FBS, 2 mM L-Glutamine.
(§2) BaF3, a murine interleukin-3 dependent pro-B cell line, parental cells, BaF3 PIM1 cells, BaF3 PIM2 cells, and MM1.S (multiple myeloma) cells were seeded at 2 k/well, 5 k/well, 5 k/well, and 10 k/well respectively, in a 384-well plate, at 45 μL/well. Test compound was added at 5 μL/well. BaF3 cells (parental and transfected) were incubated overnight, while MM1.S cells were incubated for 72 hours at 37° C., 5% CO2. Cell Titer Glo Reagent (Promega) was added at 50 μL/well, the plates were incubated for 30 minutes, and their luminescence read on an HT Analyst. IC50/EC50 values for the test compound were calculated.
Background: In ATP-based viability assays light output follows the ATP content of the culture.

In a further assay the test system is BaF3 PIM1 cells. Described as above. Type of assay: cell-based, murine. As to conditions: Mus musculus. The protocol:
as §1, §2

Where [1] appears, read: BaF3 parental line, medium with 2 ng/mL mIL-3, incubated overnight, read-out: Prolif BaF3 IL3 (IC50).
[2] abbreviates: BaF3 line transfected with PIM1, incubated overnight, read-out: Prolif BaF3 PIM1 (IC50).

For six compounds, IC50 results are on record in patent US8669361B2, “Pyrazol-4-yl-heterocyclyl-carboxamide compounds and methods of use” (Genentech, Inc., priority 2010, dated 2014).

Where two headings read alike, the source gives them in different places. Where only a bound is given, the exact number is not on record here.

Regarding `Cn1ncc(NC(=O)c2nc(-c3ccccc3F)ccc2N)c1OCC1CCNCC1` [Example 117, 3-amino-6-(2-fluorophenyl)-N-(1-methyl-5-(piperidin-4-ylmethoxy)-1H-pyrazol-4-yl)picolinamide], the half-maximal inhibitory concentration (IC50) (as a rule, the midpoint of a concentration-inhibition curve) in the assay on BaF3 parental cells (BaF3, read-out: Prolif BaF3 IL3 (IC50)) was more than 25000 nM; in the assay on BaF3 PIM1 cells (BaF3, read-out: Prolif BaF3 PIM1 (IC50)), 4900 nM.
In the case of `Cn1ncc(NC(=O)c2nc(-c3c(F)cccc3F)sc2N)c1N1CCC(CN)CC1` [Example 133, 5-amino-N-(5-(4-(aminomethyl)piperidin-1-yl)-1-methyl-1H-pyrazol-4-yl)-2-(2,6-difluorophenyl)thiazole-4-carboxamide], the figures for the IC50 in the assay with BaF3 parental cells (setting [1]) and with BaF3 PIM1 cells (setting [2]) were 25000 nM and 258 nM, respectively.
In the same order, the values of `Cn1ncc(NC(=O)c2nc(-c3ccccc3F)ccc2N)c1N1CC[C@@H](CN)C1` [Example 134, (S)-3-amino-N-(5-(3-(aminomethyl)pyrrolidin-1-yl)-1-methyl-1H-pyrazol-4-yl)-6-(2-fluorophenyl)picolinamide] are 7800 nM and 1400 nM.
In the same order, the values of `Cn1ncc(NC(=O)c2nc(-c3ccccc3F)ccc2N)c1N1CC[C@H](CN)C1` [Example 136, (R)-3-amino-N-(5-(3-(aminomethyl)pyrrolidin-1-yl)-1-methyl-1H-pyrazol-4-yl)-6-(2-fluorophenyl)picolinamide] are 5900 nM and 634 nM.
Taken in the same sequence, the figures for `Cn1ncc(NC(=O)c2nc(-c3ccccc3F)cnc2N)c1N1CCC[C@H](N)CC1` [Example 143, (S)-3-amino-N-(5-(4-aminoazepan-1-yl)-1-methyl-1H-pyrazol-4-yl)-6-(2-fluorophenyl)pyrazine-2-carboxamide] were 1100 nM and 377 nM.
Take `Cn1ncc(NC(=O)c2nc(-c3ccccc3F)ccc2N)c1N1CCC[C@@H](N)CC1` [Example 145, (R)-3-amino-N-(5-(4-aminoazepan-1-yl)-1-methyl-1H-pyrazol-4-yl)-6-(2-fluorophenyl)picolinamide]: the IC50 was found to be 3800 nM in the assay on BaF3 parental cells (setting [1]) and 1000 nM in the assay on BaF3 PIM1 cells (setting [2]).
